The record followed here is US11207379B2, “Peptides with anti-cancer activity” (IDP DISCOVERY PHARMA, S.L., priority 2016, dated 2021).

Like-named read-outs stand apart in the source and are kept apart here. Bridge positions count the residues as written; N and C are the ends. Square brackets hold non-standard residues; d marks the D form. Ends that are not written are not given here. Peptide text beside a SMILES is read from it. R8 = C=CCCCCCC[C@@](C)(N)C(=O)O; S5 = C=CCCC[C@](C)(N)C(=O)O A value given as a limit tells only on which side of the number the result lay.

Test in all cases: Viability assay (MTT, Alamar Blue, hexosaminidase), 72 h
Common to all, as to type: cell-based
Background: Resazurin is reduced to fluorescent resorufin, in cell work by metabolically active cells.

The target in assay [1] is MM.1S, B Lymphoblast (multiple myeloma). How it is done:
MM.1S, B Lymphoblast (multiple myeloma), ATCC: CRL-2974
(§1) Cell lines A549, MCF-7 and RAMOS were cultured in incubator under CO2 (6%) at 37° C. in DMEM high glucose (Dulbecco's Modified Eagle Solution, Gibco-BRL 31966-21) medium with 10% fetal bovine serum inactivated (FBS) (Gibco-BRL 10106-169). Cell lines HL-60 and MM.1S were cultured in incubator at 37° C. in RPMI-1640 (Sigma R8758) medium with 10% of fetal bovine serum inactivated (FBS) and 2 mM glutamine (Sigma G7513). Cell lines BJ were cultured in incubator under CO2 (6%) at 37° C. in Eagle's Minimum Essential Medium (Sigma, M-2279) with 10% fetal bovine serum inactivated (FBS) (Gibco-BRL 10106-169).
(§2) During the amplification step and the assays adherent cells were rinsed with DPBS (Dulbecco's Phosphate Buffered Saline, Sigma D1283) three times and afterward treated for 5 minutes with trypsin ([…]) (Gibco-BRL, 15400054) in solution of DPBS at 37° C., and, once detached, transferred in the culturing medium. No-adherent cells were centrifuged and transferred in the culturing medium. Cells were counted in a Neubauer chamber after labelling with Tripan-Blue.
(§3) A549, MCF-7 and JB cells were seeded at a density of 5000 cells/well and HL-60, MM.1S and Ramos at 10000 cells/well in 100 μl of medium in 96 well plates. After 24 h, the compounds to be tested were added to calculate the dose/response curve at the starting concentration of 100 μM with serial dilutions (1:1). Controls are the untreated cells. Each experiment was performed in triplicate.
(§4) Cells were incubated during 72 h in incubator under CO2 atmosphere at 37° C. Cell viability was measured by means of MTT (3-(4,5-dimethylthiazol-2-yl)-2.5-diphenyltetrazolium bromide) assay, Alamar Blue® (Biosource DAL1100) and Hexosaminidase activity test, consecutively, following manufacturer instructions.
(§5) MTT: 1. Stock solution of MTT (475989 Calbiochem) was 5 mg/ml in PBS 1×. As negative control (experiment noise) 3 wells were treated with 20 μl/well of a solution of SDS 10% in H2O. The same control was used for Alamar Blue/Hexosaminidase. 10 μl/well of MTT solution were added and the plate was incubated for 3-4 hr. The medium was discarded and 100 μl of extracting buffer (PBS 1×, 15% SDS, 50% […] N,N-Dimethylformamide, pH 4.7) were added to each well. Plates were incubated for 16 h at room temperature under orbital shaking. Absorbance at 570 nm was finally measured.
(§6) Alamar Blue: 10 μl Alamar Blue solution was added to each well and the plates were incubated for […] in the incubator. Fluorescence ratio at 535/590 (excitation/emission) was measured in Cytofluor (Millipore) fluorimeter. Blank control was determined by lysis of untreated cells with con 2% of Triton X100, right before adding Alamar Blue solution.
(§7) Hexosaminidase activity test: after Alamar Blue lecture, medium was discarded and plates were rinsed once with PBS. 60 μl hexosaminidase substrate (p-nitrophenol-N-acetyl-beta-D-glucosamide 7.5 mM [Sigma N-9376], sodium citrate 0.1 M, pH 5.0, 0.25% Triton X-100) was added to each well and the plates were incubated at 37° C. for 2-5 h, according to the cell type (hexosaminidase activity changes according to the cell type). […] Blank control was the same as described before.
(§8) Data analysis was performed calculating the percentage of cell viability normalized vs. the values of negative control, which was considered equal to 100%. The dose/response curve was fitted through the sigmoidal equation dose-response (variable slope) and the EC50 values were calculated as follow: Y=Bottom+(Top−Bottom)/(1+10^{[(Log EC50−X)*HillSlope]},

Assay [2] has as its target HL-60, promyeloblast (acute myelocytic leukemia, AML). As for the experimental part:
HL-60, promyeloblast (acute myelocytic leukemia, AML), ECACC: 98070106
as §1, §2, §3, §4, §5, §6, §7, §8

Assay [3] concerns the target A549, epithelial (lung cancer). How it is done:
A549, epithelial (lung cancer), ATCC:CCL-185
as §1, §2, §3, §4, §5, §6, §7, §8

Assay [4] concerns the target RAMOS, B lymphocyte (Burkitt's Lymphoma). How it is done: RAMOS, B lymphocyte (Burkitt's Lymphoma), ATCC: CRL-1596
as §1, §2, §3, §4, §5, §6, §7, §8

Assay [5] addresses MCF-7, epithelial (breast cancer). As for the experimental part: MCF-7, epithelial (breast cancer), ECACC: 86012803
as §1, §2, §3, §4, §5, §6, §7, §8

A word on the EC50: it is the concentration needed to bring the measured effect to its halfway point.

With `CCc1ccc(/C=C2/SC(=S)NC2=O)cc1` [10058-F4, reference compound], the concentration giving a half-maximal response (EC50) in assay [1] (MM.1S cells, read-out: EC50) was above 100 µM; in assay [2] (HL-60 cells, read-out: EC50) it was 54 ± 2 µM; in assay [3] (A549 cells, read-out: EC50), above 100 µM; in assay [4] (Ramos cells, read-out: EC50), around 57 µM; in assay [5] (MCF7 cells, read-out: EC50), around 52 µM.

As to `CC(C)C[C@@H]1NC(=O)[C@H](C)NC(=O)[C@H](C)NC(=O)[C@H](Cc2ccccc2)NC(=O)[C@](C)(NC(=O)[C@H](CCCNC(=N)N)NC(=O)[C@H](CCCCN)NC(=O)[C@H](CC(C)C)NC(=O)[C@H](CCC(=O)O)NC(=O)[C@H](CC(N)=O)NC(=O)[C@H](CCCNC(=N)N)NC(=O)[C@H](CCCNC(=N)N)NC(=O)[C@H](CCC(N)=O)NC(=O)[C@@H](N)CCCNC(=N)N)CCCCCC/C=C\CCC[C@@](C)(C(N)=O)NC(=O)[C@H](CC(=O)O)NC(=O)[C@H](CCCNC(=N)N)NC1=O` [IDP-S04, RQRRNELKRXFAALRDX-H2] (H-RQRRNELKR[R8]FAALRD[S5]-NH2; staple (Z) 10-17; N-terminus assumed), the EC50 in assay [1] (MM.1S cells, read-out: EC50) is 19 ± 1 µM; in assay [2] (HL-60 cells, read-out: EC50) it was around 24 µM; in assay [4] (Ramos cells, read-out: EC50), around 64 µM; in assay [5] (MCF7 cells, read-out: EC50), around 60 µM.

As for `CC(C)C[C@@H]1NC(=O)[C@H](C)NC(=O)[C@H](Cc2ccccc2)NC(=O)[C@H](Cc2ccccc2)NC(=O)[C@](C)(NC(=O)[C@H](CCCNC(=N)N)NC(=O)[C@H](CCCCN)NC(=O)[C@H](CC(C)C)NC(=O)[C@H](CCC(=O)O)NC(=O)[C@@H](N)CC(N)=O)CCCCCC/C=C\CCC[C@@](C)(C(N)=O)NC(=O)[C@H](CC(=O)O)NC(=O)[C@H](CCCNC(=N)N)NC1=O` [IDP-S13, NELKRXFFALRDX-NH2] (H-NELKR[R8]FFALRD[S5]-NH2; staple (Z) 6-13; N-terminus assumed), the EC50 in assay [1] (MM.1S cells, read-out: EC50) is above 100 µM; in assay [2] (HL-60 cells, read-out: EC50) it was above 100 µM; in assay [4] (Ramos cells, read-out: EC50), above 100 µM; in assay [5] (MCF7 cells, read-out: EC50), above 100 µM.

As for `CC[C@H](C)[C@H](NC(=O)[C@@H](NC(=O)[C@@H](NC(=O)[C@H](CCCCN)NC(=O)[C@@H]1CCCN1C(=O)[C@H](C)N)C(C)C)C(C)C)C(=O)N[C@]1(C)CCCCCC/C=C\CCC[C@@](C)(C(=O)N[C@@H](CC(C)C)C(=O)N[C@@H](CO)C(N)=O)NC(=O)[C@H](Cc2ccc(O)cc2)NC(=O)[C@H](C)NC(=O)[C@H]([C@@H](C)O)NC(=O)[C@H](C)NC(=O)[C@H](CCCCN)NC(=O)[C@H](CCCCN)NC1=O` [IDP-S17, APKVVIXKKATAYXLS] (H-APKVVI[R8]KKATAY[S5]LS-NH2; staple (Z) 7-14; N-terminus and C-terminus assumed), the EC50 in assay [1], in assay [2], in assay [3], in assay [4] and in assay [5] was above 100 µM throughout.

Take `CC[C@H](C)[C@@H]1NC(=O)[C@H](Cc2ccc(O)cc2)NC(=O)[C@H](C)NC(=O)[C@H]([C@@H](C)O)NC(=O)[C@H](C)NC(=O)[C@H](CCCCN)NC(=O)[C@](C)(NC(=O)[C@H](CC(C)C)NC(=O)[C@@H](NC(=O)[C@@H](NC(=O)[C@@H](NC(=O)[C@H](CCCCN)NC(=O)[C@@H]2CCCN2C(=O)[C@H](C)N)C(C)C)C(C)C)[C@@H](C)CC)CCCCCC/C=C\CCC[C@@](C)(C(=O)N[C@@H](CO)C(N)=O)NC1=O` [IDP-S18, APKVVILXKATAYIXS] (H-APKVVIL[R8]KATAYI[S5]S-NH2; staple (Z) 8-15; N-terminus and C-terminus assumed): the EC50 in assay [1], in assay [2], in assay [3], in assay [4] and in assay [5] was above 100 µM each time.

Regarding `CC[C@H](C)[C@H](NC(=O)[C@]1(C)CCC/C=C\CCCCCC[C@@](C)(NC(=O)[C@@H](NC(=O)[C@@H](NC(=O)[C@H](CCCCN)NC(=O)[C@@H]2CCCN2C(=O)[C@H](C)N)C(C)C)C(C)C)C(=O)N[C@@H](CC(C)C)C(=O)N[C@@H](CCCCN)C(=O)N[C@@H](CCCCN)C(=O)N[C@@H](C)C(=O)N[C@@H]([C@@H](C)O)C(=O)N[C@@H](C)C(=O)N1)C(=O)N[C@@H](CC(C)C)C(=O)N[C@@H](CO)C(N)=O` [IDP-S22, APKVVXLKKATAXILS] (H-APKVV[R8]LKKATA[S5]ILS-NH2; staple (Z) 6-13; N-terminus and C-terminus assumed), the EC50 in assay [1], in assay [2], in assay [3], in assay [4] and in assay [5] was above 100 µM each time.

Take APKXVIFKKAXAYILS-OH [IDP-S14]: the EC50 came out at 6.6 ± 0.9 µM in assay [1] (MM.1S cells, read-out: EC50); 7.8 ± 0.4 µM in assay [2] (HL-60 cells, read-out: EC50); 9.1 ± 0.8 µM in assay [3] (A549 cells, read-out: EC50); 55 µM in assay [4] (Ramos cells, read-out: EC50).

QRRNXLKRAFAXLRD-OH [IDP-S312]: the EC50 in assay [1] (MM.1S cells, read-out: EC50) was around 25 µM.

Turning to “RQRRNELKRSFFALRDQ [IDP-L11, RQRRNELKRSFFALRDQ]”, the EC50 in assay [1], in assay [2], in assay [4] and in assay [5] was above 100 µM throughout.

For RQRRNELKRXFFALRDX-NH2 [IDP-S12], the EC50 in assay [1] (MM.1S cells, read-out: EC50) was determined as 22 ± 2 µM; in assay [2] (HL-60 cells, read-out: EC50) it was 23 ± 1 µM; in assay [3] (A549 cells, read-out: EC50), 50 µM; in assay [4] (Ramos cells, read-out: EC50), 52 ± 2 µM; in assay [5] (MCF7 cells, read-out: EC50) it was 42 ± 2 µM.

For the compound RQRRNXLKRAFAXLRD-OH [IDP-S311], the EC50 in assay [1] (MM.1S cells, read-out: EC50) is around 15 µM.
